# According to publication PMC3057995, “Potent Anti-Tumor Effect Generated by a Novel Human Papillomavirus (HPV) Antagonist Peptide Reactivating the pRb/E2F Pathway” (PLoS ONE, 2011):
# What was measured:
# CaSki cells = assay: Clonogenic assay, CaSki; format: cell-based; conditions: 14 days
# Method: Cells were seeded in DMEM at 1×10^3 cells/well density in 12-well plates and allowed to attach to the substrate overnight. Thereafter, cells were treated with 0 µM, 16 µM, 32 µM, 80 µM, and 160 µM peptide in DMEM, and the medium was changed every three days. The plates were observed daily for colony formation. After 8 (for HeLa cells) or 14 (for SiHa and CaSki cells) days of treatment, the cultures were washed three times with PBS and stained with crystal violet in ethanol for 15 min. The colonies were then counted and photographed with the Alphalmager® EP image acquisition system (Alpha Innotech, Santa Clara, CA, USA).
# SiHa cells = assay: Western blot, SiHa; format: cell-based; conditions: 80 µM
# Method: Western blotting was carried out as described previously, [50]. […] After another 48 h of treatment, the cells were lysed in lysis buffer (Beyotime Institute of Biotechnology, Jiangshu, China) containing PMSF (Sigma Chemical Co., St. Louis, MI, USA) for 30 min at 4°C. The lysate was then centrifuged for 20 min at 13,000 rpm and 4°C. The proteins were then separated through SDS-PAGE and transferred onto the PVDF membrane (Immobion®-P Transfer Membrane, Millipore Corp., Billerica, MA, USA). Membranes were blocked in a Tris-buffered saline with 0.1% Tween-20 (TBS-T) solution with 5% nonfat dry milk and incubated overnight with primary antibodies at 4°C. The immunoreactive signals were detected by HRP-conjugated secondary antibodies (KPL, Gaithersburg, MD, USA) followed by SuperSignal® West Pico Chemiluminescent Substrate (Thermo Scientific, Milford, MA, USA.). Anti-β-actin antibodies were used to control protein loading. For the in vivo studies, tumors were harvested, and the cell lysates were prepared and transferred to a clean Eppendorf tube and centrifuged for 30 min at 14,000 rpm. The supernate was probed by western blotting, as described above.
# SiHa tumor xenografts = assay: Subcutaneous tumor model in nude mice; format: in vivo, mouse (Balb/C-nu/nu); conditions: 400 and 800 µg/mouse i.v., 16 days, p<0.01
# Method: A subcutaneous tumor model of nude mice was constructed. In brief, six-week-old female nude mice (18±2 g) were subcutaneously inoculated with 1.5×10^7 SiHa cells. When the tumor size reached about 100 mm^2, the mice were randomly divided into four groups with 5 mice each, namely, control group, low-dose group, middle-dose group, and high-dose group. […] The mice were raised for another 3 weeks. Tumor sizes were measured with a caliper every three days and tumor volume was calculated using “volume = length×width^2/2.” At the end of the experiment, all mice were sacrificed and the weights of the detached tumors were measured. Tumor growth inhibition ratio was represented as the tumor weight relative to the control, calculated using the formula, “Relative tumor weight (% of control) = average tumor weight of treatment group/average tumor weight of control group×100%.”
sequence,measurement,setting,value
SACPKGLDWCGG (C&C bridged by disulfide bonds) (disulfide) [Pep-7],colony formation,CaSki cells; 16-160 µM,inhibited
same,concentration up to which colony number difference vs control became significant (p<0.02),"CaSki cells; vs 0 µM group, three independent experiments",32 µM
same,p107 and p130 protein levels,SiHa cells; SiHa and CaSki (Fig. 4D),did not exhibit an effect
same,HPV16E7 protein level,"SiHa cells; SiHa, 48 h",reduced
same,"cyclins A, D1 and E1 protein expression","SiHa cells; SiHa, 48 h",significantly reduced
same,pRb protein level,"SiHa cells; SiHa, 48 h",increased
same,anti-tumor efficacy,SiHa tumor xenografts,significant anti-tumor efficacy
